Patent US20230151049A1, “Compounds Useful in HIV Therapy” (priority 2020, published 2023)
Where two headings read alike, the source gives them in different places.

Experiment: in vivo
Conditions: for concentration at 1 day: day 1; for concentration at 7 day: day 7; for concentration at 14 day: day 14
Method in brief: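 Three male Wistar Han rats (200-250 g), not fasted, received a single intramuscular gastrocnemius injection of prodrug suspension at 20 mg/kg EFdA equivalent. Tail-vein blood was taken into NaF/Na2EDTA, mixed 1:1 with 100 mM ammonium acetate pH 4, frozen, and analysed by LC-MS/MS.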

[1] = male, Wistar Han, rat, in vivo, single IM Example 20A 57 mg/kg, read-out: Mean concentration of Example 20A
[2] = day 49, single IM Example 1A 20 mg/kg
[3] = day 56, single IM Example 1A 20 mg/kg
[4] = day 63, single IM Example 1A 20 mg/kg
[5] = day 70, single IM Example 1A 20 mg/kg
[6] = day 77, single IM Example 1A 20 mg/kg
[7] = day 84, single IM Example 1A 20 mg/kg
[8] = day 91, single IM Example 1A 20 mg/kg
[9] = male, Wistar Han, rat, in vivo, 20 mg/kg equivalent of EFdA, single IM Example 1A 20 mg/kg, read-out: Mean concentration of Example 1A
[10] = day 35, single IM Example 19A 55 mg/kg
[11] = day 42, single IM Example 19A 55 mg/kg
[12] = day 49, single IM Example 19A 55 mg/kg
[13] = male, Wistar Han, rat, in vivo, single IM Example 19A 55 mg/kg, read-out: Mean concentration of Example 19A
[14] = day 35, single IM Example 18A 54 mg/kg
[15] = day 42, single IM Example 18A 54 mg/kg
[16] = day 49, single IM Example 18A 54 mg/kg
[17] = male, Wistar Han, rat, in vivo, single IM Example 18A 54 mg/kg, read-out: Mean concentration of Example 18A

C#C[C@]1(COP(=O)(N[C@@H](Cc2ccccc2)C(=O)OCCCCCCCCCCCCCCCCC)Oc2ccccc2)O[C@@H](n2cnc3c(N)nc(F)nc32)C[C@@H]1O (single isomer, unassigned) [Example 20A]
Mean concentration of EFdA (day 77, single IM Example 20A 57 mg/kg): BQL (BQL = below quantification limit, 0.3 ng/mL for Example 20A and 0.1-0.3 ng/mL for EFdA) | Mean concentration of EFdA (day 84, single IM Example 20A 57 mg/kg): BQL (BQL = below quantification limit, 0.3 ng/mL for Example 20A and 0.1-0.3 ng/mL for EFdA) | concentration at 1 day [1]: 15.3 ng/mL | concentration at 7 day [1]: 14.6 ng/mL | concentration at 14 day [1]: 13.8 ng/mL | concentration at 21 day (male, Wistar Han, rat, in vivo, day 21, single IM Example 20A 57 mg/kg, read-out: Mean concentration of Example 20A): 9.76 ng/mL | concentration at 28 day (male, Wistar Han, rat, in vivo, day 28, single IM Example 20A 57 mg/kg, read-out: Mean concentration of Example 20A): 8.45 ng/mL | concentration at 35 day (male, Wistar Han, rat, in vivo, day 35, single IM Example 20A 57 mg/kg, read-out: Mean concentration of Example 20A): 13.3 ng/mL | concentration at 42 day (male, Wistar Han, rat, in vivo, day 42, single IM Example 20A 57 mg/kg, read-out: Mean concentration of Example 20A): 5.27 ng/mL | concentration at 49 day (male, Wistar Han, rat, in vivo, day 49, single IM Example 20A 57 mg/kg, read-out: Mean concentration of Example 20A): 4.25 ng/mL | concentration at 56 day (male, Wistar Han, rat, in vivo, day 56, single IM Example 20A 57 mg/kg, read-out: Mean concentration of Example 20A): 3.2 ng/mL | concentration at 63 day (male, Wistar Han, rat, in vivo, day 63, single IM Example 20A 57 mg/kg, read-out: Mean concentration of Example 20A): 4.84 ng/mL | concentration at 70 day (male, Wistar Han, rat, in vivo, day 70, single IM Example 20A 57 mg/kg, read-out: Mean concentration of Example 20A): 2.74 ng/mL | concentration at 77 day (male, Wistar Han, rat, in vivo, day 77, single IM Example 20A 57 mg/kg, read-out: Mean concentration of Example 20A): 4 ng/mL | concentration at 84 day (male, Wistar Han, rat, in vivo, day 84, single IM Example 20A 57 mg/kg, read-out: Mean concentration of Example 20A): 3.32 ng/mL

C#C[C@]1(COP(=O)(N[C@@H](Cc2ccccc2)C(=O)OCCCCCCCCCCCCCCCCCCCCCC)Oc2ccccc2)O[C@@H](n2cnc3c(N)nc(F)nc32)C[C@@H]1O (single isomer, unassigned) [Example 1A]
Mean concentration of EFdA (day 21, single IM Example 1A 20 mg/kg): BQL | Mean concentration of EFdA (day 35, single IM Example 1A 20 mg/kg): BQL | Mean concentration of EFdA (day 42, single IM Example 1A 20 mg/kg): BQL | Mean concentration of EFdA [2]: BQL | Mean concentration of Example 1A [2]: BQL (BQL = below quantification limit, 0.3-0.5 ng/mL for Example 1A and 0.1-o.3 ng/mL for EFdA) | Mean concentration of EFdA [3]: BQL | Mean concentration of Example 1A [3]: BQL (BQL = below quantification limit, 0.3-0.5 ng/mL for Example 1A and 0.1-o.3 ng/mL for EFdA) | Mean concentration of EFdA [4]: BQL | Mean concentration of Example 1A [4]: BQL (BQL = below quantification limit, 0.3-0.5 ng/mL for Example 1A and 0.1-o.3 ng/mL for EFdA) | Mean concentration of EFdA [5]: BQL | Mean concentration of Example 1A [5]: BQL (BQL = below quantification limit, 0.3-0.5 ng/mL for Example 1A and 0.1-o.3 ng/mL for EFdA) | Mean concentration of EFdA [6]: BQL | Mean concentration of Example 1A [6]: BQL (BQL = below quantification limit, 0.3-0.5 ng/mL for Example 1A and 0.1-o.3 ng/mL for EFdA) | Mean concentration of EFdA [7]: BQL | Mean concentration of Example 1A [7]: BQL (BQL = below quantification limit, 0.3-0.5 ng/mL for Example 1A and 0.1-o.3 ng/mL for EFdA) | Mean concentration of EFdA [8]: BQL | Mean concentration of Example 1A [8]: BQL (BQL = below quantification limit, 0.3-0.5 ng/mL for Example 1A and 0.1-o.3 ng/mL for EFdA) | concentration at 7 day [9]: 6.38 ng/mL | concentration at 14 day [9]: 1.86 ng/mL | concentration at 21 day (male, Wistar Han, rat, in vivo, 20 mg/kg equivalent of EFdA, day 21, single IM Example 1A 20 mg/kg, read-out: Mean concentration of Example 1A): 3.42 ng/mL | concentration at 1 day (male, Wistar Han, rat, in vivo, single IM Example 1A 20 mg/kg, read-out: Mean concentration of Example 1A): 65.3 ng/mL | concentration at 28 day (male, Wistar Han, rat, in vivo, day 28, single IM Example 1A 20 mg/kg, read-out: Mean concentration of Example 1A): 2.72 ng/mL | concentration at 35 day (male, Wistar Han, rat, in vivo, day 35, single IM Example 1A 20 mg/kg, read-out: Mean concentration of Example 1A): 1.34 ng/mL | concentration at 42 day (male, Wistar Han, rat, in vivo, day 42, single IM Example 1A 20 mg/kg, read-out: Mean concentration of Example 1A): 0.633 ng/mL

C#C[C@]1(COP(=O)(N[C@@H](Cc2ccccc2)C(=O)OCCCCCCCCCCCCCCC)Oc2ccccc2)O[C@@H](n2cnc3c(N)nc(F)nc32)C[C@@H]1O (single isomer, unassigned) [Example 19A]
Mean concentration of EFdA (day 28, single IM Example 19A 55 mg/kg): BQL (BQL = below quantification limit, 0.3 ng/mL for both) | Mean concentration of EFdA [10]: BQL (BQL = below quantification limit, 0.3 ng/mL for both) | Mean concentration of Example 19A [10]: BQL (BQL = below quantification limit, 0.3 ng/mL for both) | Mean concentration of EFdA [11]: BQL (BQL = below quantification limit, 0.3 ng/mL for both) | Mean concentration of Example 19A [11]: BQL (BQL = below quantification limit, 0.3 ng/mL for both) | Mean concentration of EFdA [12]: BQL (BQL = below quantification limit, 0.3 ng/mL for both) | Mean concentration of Example 19A [12]: BQL (BQL = below quantification limit, 0.3 ng/mL for both) | concentration at 1 day [13]: 2.37 ng/mL | concentration at 7 day [13]: 9.08 ng/mL | concentration at 14 day [13]: 3.06 ng/mL | concentration at 21 day (male, Wistar Han, rat, in vivo, day 21, single IM Example 19A 55 mg/kg, read-out: Mean concentration of Example 19A): 1.45 ng/mL | concentration at 28 day (male, Wistar Han, rat, in vivo, day 28, single IM Example 19A 55 mg/kg, read-out: Mean concentration of Example 19A): 0.909 ng/mL

C#C[C@]1(COP(=O)(N[C@@H](Cc2ccccc2)C(=O)OCCCCCCCCCCCCCC)Oc2ccccc2)O[C@@H](n2cnc3c(N)nc(F)nc32)C[C@@H]1O (single isomer, unassigned) [Example 18A]
Mean concentration of EFdA (day 28, single IM Example 18A 54 mg/kg): BQL (BQL = below quantification limit, 0.3 ng/mL for both) | Mean concentration of EFdA [14]: BQL (BQL = below quantification limit, 0.3 ng/mL for both) | Mean concentration of Example 18A [14]: BQL (BQL = below quantification limit, 0.3 ng/mL for both) | Mean concentration of EFdA [15]: BQL (BQL = below quantification limit, 0.3 ng/mL for both) | Mean concentration of Example 18A [15]: BQL (BQL = below quantification limit, 0.3 ng/mL for both) | Mean concentration of EFdA [16]: BQL (BQL = below quantification limit, 0.3 ng/mL for both) | Mean concentration of Example 18A [16]: BQL (BQL = below quantification limit, 0.3 ng/mL for both) | concentration at 1 day [17]: 2.47 ng/mL | concentration at 7 day [17]: 12 ng/mL | concentration at 14 day [17]: 1.44 ng/mL | concentration at 21 day (male, Wistar Han, rat, in vivo, day 21, single IM Example 18A 54 mg/kg, read-out: Mean concentration of Example 18A): 0.947 ng/mL | concentration at 28 day (male, Wistar Han, rat, in vivo, day 28, single IM Example 18A 54 mg/kg, read-out: Mean concentration of Example 18A): 0.614 ng/mL
